Results reported in publication PMC5218480 (PLoS ONE, 2017).

Tested on: MV-4-11 cells
Test: Gene expression microarray analysis (Affymetrix PrimeView) and GSEA
Type: cell-based, human
Design: RFU PODN (11730768_x_at) / Fold change /veh PODN (11730768_x_at) / RFU LINC00158 (11744669_a_at) / Fold change /veh LINC00158 (11744669_a_at) / RFU DUSP10 (11751237_a_at) / Fold change /veh DUSP10 (11751237_a_at) / RFU ID3 (11757404_x_at) / Fold change /veh ID3 (11757404_x_at) / RFU PLEKHG5 (11737974_s_at) / Fold change /veh PLEKHG5 (11737974_s_at) / RFU LRRC4B (11730491_at) / Fold change /veh LRRC4B (11730491_at) / RFU GIMAP4 (11747438_a_at) / Fold change /veh GIMAP4 (11747438_a_at) / RFU KRT8 (11758183_x_at) / Fold change /veh KRT8 (11758183_x_at) / RFU CNN1 (11734310_a_at) / Fold change /veh CNN1 (11734310_a_at) / RFU VPS37D (11726825_at) / Fold change /veh VPS37D (11726825_at) / RFU C10orf10 (11716522_x_at) / Fold change /veh C10orf10 (11716522_x_at) / RFU KIR2DL2 /// KIR2DL4 /// KIR2DL5A /// KIR2DL5B /// KIR2DS1 /// KIR2DS2 /// KIR2DS3 /// KIR2DS4 /// KIR3DL3 /// KIR3DL3 /// KIR3DS1 (11738374_at) / Fold change /veh KIR2DL2 /// KIR2DL4 /// KIR2DL5A /// KIR2DL5B /// KIR2DS1 /// KIR2DS2 /// KIR2DS3 /// KIR2DS4 /// KIR3DL3 /// KIR3DL3 /// KIR3DS1 (11738374_at) / RFU C1QL1 (11718748_at) / Fold change /veh C1QL1 (11718748_at) / RFU TMPRSS4 (11747572_a_at) / Fold change /veh TMPRSS4 (11747572_a_at) / RFU HAMP (11756126_x_at) / Fold change /veh HAMP (11756126_x_at) / RFU RNFT2 (11725882_a_at) / Fold change /veh RNFT2 (11725882_a_at) / RFU NR4A2 (11747474_a_at) / Fold change /veh NR4A2 (11747474_a_at) / RFU ABCC12 (11746883_a_at) / Fold change /veh ABCC12 (11746883_a_at) / RFU TMEM136 (11760407_x_at) / Fold change /veh TMEM136 (11760407_x_at) / RFU CLDN22 /// WWC2 (11732394_at) / Fold change /veh CLDN22 /// WWC2 (11732394_at) / RFU HLA-DPB1 (11760878_x_at) / Fold change /veh HLA-DPB1 (11760878_x_at) / RFU SPINT1 (11716480_a_at) / Fold change /veh SPINT1 (11716480_a_at) / RFU GAP43 (11754022_s_at) / Fold change /veh GAP43 (11754022_s_at) / RFU A4GNT (11735810_at) / Fold change /veh A4GNT (11735810_at) / RFU PRB3 (11715151_x_at) / Fold change /veh PRB3 (11715151_x_at) / RFU TUBB4B (11761932_at) / Fold change /veh TUBB4B (11761932_at) / RFU CAPN14 (11732068_a_at) / Fold change /veh CAPN14 (11732068_a_at) / RFU TMCC2 (11721928_a_at) / Fold change /veh TMCC2 (11721928_a_at) / RFU IRGQ (11745062_a_at) / Fold change /veh IRGQ (11745062_a_at) / RFU FAM174B (11720279_a_at) / Fold change /veh FAM174B (11720279_a_at) / RFU TMPRSS4 (11748680_a_at) / Fold change /veh TMPRSS4 (11748680_a_at) / RFU FAM212B (11763350_a_at) / Fold change /veh FAM212B (11763350_a_at) / RFU PLEKHG5 (11743358_a_at) / Fold change /veh PLEKHG5 (11743358_a_at) / RFU ZSCAN30 (11745921_a_at) / Fold change /veh ZSCAN30 (11745921_a_at) / RFU CMKLR1 (11741424_a_at) / Fold change /veh CMKLR1 (11741424_a_at) / RFU LOC101060620 /// MAPK8IP1 (11723275_at) / Fold change /veh LOC101060620 /// MAPK8IP1 (11723275_at) / RFU SPTSSB (11747773_x_at) / Fold change /veh SPTSSB (11747773_x_at) / RFU PRSS12 (11739890_at) / Fold change /veh PRSS12 (11739890_at) / RFU BIN1 (11741810_x_at) / Fold change /veh BIN1 (11741810_x_at) / RFU WNT11 (11732464_a_at) / Fold change /veh WNT11 (11732464_a_at) / RFU C10orf10 (11716521_a_at) / Fold change /veh C10orf10 (11716521_a_at) / RFU C5orf56 (11738089_at) / Fold change /veh C5orf56 (11738089_at) / RFU CYB561 (11721691_x_at) / Fold change /veh CYB561 (11721691_x_at) / RFU ANKRD19P (11752326_a_at) / Fold change /veh ANKRD19P (11752326_a_at) / RFU OR2T12 /// OR2T33 /// OR2T8 (11738714_s_at) / Fold change /veh OR2T12 /// OR2T33 /// OR2T8 (11738714_s_at) / RFU VCAN (11748164_a_at) / Fold change /veh VCAN (11748164_a_at) / RFU JSRP1 (11732532_at) / Fold change /veh JSRP1 (11732532_at) / RFU KRTAP10-11 (11738290_x_at) / Fold change /veh KRTAP10-11 (11738290_x_at) / RFU MYO3A (11730013_a_at) / Fold change /veh MYO3A (11730013_a_at) / RFU EBF3 (11725865_a_at) / Fold change /veh EBF3 (11725865_a_at) / RFU CAMK2N1 (11719241_x_at) / Fold change /veh CAMK2N1 (11719241_x_at) / RFU C5orf56 (11738088_a_at) / Fold change /veh C5orf56 (11738088_a_at) / RFU OLFML3 (11715873_a_at) / Fold change /veh OLFML3 (11715873_a_at) / RFU LOC100653217 /// NTM (11731650_a_at) / Fold change /veh LOC100653217 /// NTM (11731650_a_at) / RFU MAPK11 (11762145_a_at) / Fold change /veh MAPK11 (11762145_a_at) / RFU FIZ1 (11724087_x_at) / Fold change /veh FIZ1 (11724087_x_at) / RFU OASL (11726364_x_at) / Fold change /veh OASL (11726364_x_at) / RFU SOX15 (11748057_x_at) / Fold change /veh SOX15 (11748057_x_at) / RFU CD79A (11719716_a_at) / Fold change /veh CD79A (11719716_a_at) / RFU HIST1H1D (11736915_at) / Fold change /veh HIST1H1D (11736915_at) / RFU CASKIN2 (11723855_a_at) / Fold change /veh CASKIN2 (11723855_a_at) / RFU LOC730098 (11760151_x_at) / Fold change /veh LOC730098 (11760151_x_at) / RFU OR4N2 (11742367_at) / Fold change /veh OR4N2 (11742367_at) / RFU PRRT2 (11749266_a_at) / Fold change /veh PRRT2 (11749266_a_at) / RFU SNX32 (11753110_a_at) / Fold change /veh SNX32 (11753110_a_at) / RFU CDHR5 (11726645_a_at) / Fold change /veh CDHR5 (11726645_a_at) / RFU RCAN1 (11760418_a_at) / Fold change /veh RCAN1 (11760418_a_at) / RFU FAM167A (11723789_a_at) / Fold change /veh FAM167A (11723789_a_at) / RFU FAM26E (11764081_at) / Fold change /veh FAM26E (11764081_at) / RFU ISYNA1 (11749810_s_at) / Fold change /veh ISYNA1 (11749810_s_at) / RFU ACY1 (11761880_at) / Fold change /veh ACY1 (11761880_at) / RFU 11764098_at / Fold change /veh 11764098_at / RFU SAMD14 (11745864_x_at) / Fold change /veh SAMD14 (11745864_x_at) / RFU NPB (11741838_a_at) / Fold change /veh NPB (11741838_a_at) / RFU TMPRSS6 (11731388_a_at) / Fold change /veh TMPRSS6 (11731388_a_at) / RFU KRTAP10-2 (11738614_at) / Fold change /veh KRTAP10-2 (11738614_at) / RFU ARHGAP8 /// PRR5-ARHGAP8 (11727945_x_at) / Fold change /veh ARHGAP8 /// PRR5-ARHGAP8 (11727945_x_at) / RFU KRTAP5-7 /// NADSYN1 (11734609_at) / Fold change /veh KRTAP5-7 /// NADSYN1 (11734609_at) / RFU RASL12 (11751679_a_at) / Fold change /veh RASL12 (11751679_a_at) / RFU CDKN2B (11736163_a_at) / Fold change /veh CDKN2B (11736163_a_at) / RFU PRF1 (11729649_at) / Fold change /veh PRF1 (11729649_at) / RFU, ZNF638 /// ZNF638-IT1 / Fold change vs veh, ZNF638 /// ZNF638-IT1 / RFU, PANK3 / Fold change vs veh, PANK3 / RFU, SH3YL1 / Fold change vs veh, SH3YL1 / RFU, ZEB2 / Fold change vs veh, ZEB2 / RFU, NRIP1 / Fold change vs veh, NRIP1 / RFU, PTTG1IP / Fold change vs veh, PTTG1IP / RFU, CAPN2 / Fold change vs veh, CAPN2 / RFU, MED14 / Fold change vs veh, MED14 / RFU, SNORA58 / Fold change vs veh, SNORA58 / RFU, C1orf63 / Fold change vs veh, C1orf63 / RFU, LRRFIP1 / Fold change vs veh, LRRFIP1 / RFU, NDUFAF7 / Fold change vs veh, NDUFAF7 / RFU, SLC12A2 / Fold change vs veh, SLC12A2 / RFU, IBTK / Fold change vs veh, IBTK / RFU, ESF1 / Fold change vs veh, ESF1 / Fold change vs veh, TMEM50B / RFU, TAOK1 / Fold change vs veh, TAOK1 / RFU, ACBD3 / Fold change vs veh, ACBD3 / RFU, TMA16 / Fold change vs veh, TMA16 / RFU, RWDD3 / Fold change vs veh, RWDD3 / RFU, BCAT1 / Fold change vs veh, BCAT1 / RFU, EDEM3 / Fold change vs veh, EDEM3 / RFU, TMEM33 / Fold change vs veh, TMEM33 / RFU, WDR75 / Fold change vs veh, WDR75 / RFU, AHCTF1 / Fold change vs veh, AHCTF1 / RFU, TFRC / Fold change vs veh, TFRC / RFU, ZDHHC17 / Fold change vs veh, ZDHHC17 / RFU, NOM1 / Fold change vs veh, NOM1 / RFU, ARL8B / Fold change vs veh, ARL8B / RFU, ZBTB11 / Fold change vs veh, ZBTB11 / RFU, TAMM41 / Fold change vs veh, TAMM41 / RFU, KIAA1704 /// LOC100996395 / Fold change vs veh, KIAA1704 /// LOC100996395 / RFU, ING1 / Fold change vs veh, ING1 / RFU, TRMT61B / Fold change vs veh, TRMT61B / RFU, FUBP3 / Fold change vs veh, FUBP3 / RFU, TP53 / Fold change vs veh, TP53 / RFU, TNKS2 / Fold change vs veh, TNKS2 / RFU, ZFP14 / Fold change vs veh, ZFP14 / RFU, ACTR2 / Fold change vs veh, ACTR2 / RFU, PPP3R1 / Fold change vs veh, PPP3R1 / RFU, PIK3R1 / Fold change vs veh, PIK3R1 / RFU, HNRNPA1 / Fold change vs veh, HNRNPA1 / RFU, RNF170 / Fold change vs veh, RNF170 / RFU, ZNF28 / Fold change vs veh, ZNF28 / RFU, RNGTT / Fold change vs veh, RNGTT / RFU, OGT / Fold change vs veh, OGT / RFU, BRD1 / Fold change vs veh, BRD1 / RFU, MARS / Fold change vs veh, MARS / RFU, ZNF655 / Fold change vs veh, ZNF655 / RFU, FAHD1 / Fold change vs veh, FAHD1 / RFU, BDP1 / Fold change vs veh, BDP1 / RFU, LRRCC1 / Fold change vs veh, LRRCC1 / RFU, ARID1A / Fold change vs veh, ARID1A / RFU, ZNF146 / Fold change vs veh, ZNF146 / RFU, ZNF330 / Fold change vs veh, ZNF330 / RFU, GPN3 / Fold change vs veh, GPN3 / RFU, C9orf123 / Fold change vs veh, C9orf123 / RFU, N4BP2L2 / Fold change vs veh, N4BP2L2 / RFU, ARFIP1 / Fold change vs veh, ARFIP1 / RFU, FAM179B / Fold change vs veh, FAM179B / RFU, BCL10 / Fold change vs veh, BCL10 / RFU, UHRF1BP1L / Fold change vs veh, UHRF1BP1L / RFU, BET1 / Fold change vs veh, BET1 / RFU, CNOT2 / Fold change vs veh, CNOT2 / RFU, ZNF268 / Fold change vs veh, ZNF268 / Fold change vs veh, ZNF507 / RFU, DGCR2 / Fold change vs veh, DGCR2 / RFU, WDSUB1 / Fold change vs veh, WDSUB1 / Fold change vs veh, HSP90B1 /// MIR3652 / RFU, ADSS / Fold change vs veh, ADSS / RFU, GK / Fold change vs veh, GK / RFU, ZNF148 / Fold change vs veh, ZNF148 / RFU, TAF9 / Fold change vs veh, TAF9 / RFU, SLC1A5 / Fold change vs veh, SLC1A5 / RFU, SLMO2 / Fold change vs veh, SLMO2 / RFU, ABCC4 / Fold change vs veh, ABCC4 / RFU, LOC101060439 /// RAP1B / Fold change vs veh, LOC101060439 /// RAP1B / RFU, RFX7 / Fold change vs veh, RFX7 / RFU, GTPBP10 / Fold change vs veh, GTPBP10 / RFU, CNEP1R1 / Fold change vs veh, CNEP1R1 / RFU, BIVM-ERCC5 /// ERCC5 / Fold change vs veh, BIVM-ERCC5 /// ERCC5 / RFU, ILF3 / Fold change vs veh, ILF3 / RFU 11762660_at / Fold change /veh 11762660_at / RFU VCAN (11757783_s_at) / Fold change /veh VCAN (11757783_s_at) / RFU DDX43 (11728927_at) / Fold change /veh DDX43 (11728927_at) / RFU KRT8 (11758188_x_at) / Fold change /veh KRT8 (11758188_x_at) / RFU NKD1 (11759106_at) / Fold change /veh NKD1 (11759106_at) / RFU SRD5A1 (11742802_a_at) / Fold change /veh SRD5A1 (11742802_a_at) / RFU TPSAB1 /// TPSB2 (11721975_s_at) / Fold change /veh TPSAB1 /// TPSB2 (11721975_s_at) / RFU GSTM3 (11746129_a_at) / Fold change /veh GSTM3 (11746129_a_at) / RFU IL23R (11737362_x_at) / Fold change /veh IL23R (11737362_x_at) / RFU TMEM51 (11727254_a_at) / Fold change /veh TMEM51 (11727254_a_at) / RFU PIWIL2 (11732686_x_at) / Fold change /veh PIWIL2 (11732686_x_at) / RFU ORM1 (11744905_x_at) / Fold change /veh ORM1 (11744905_x_at) / RFU CCDC152 (11743942_at) / Fold change /veh CCDC152 (11743942_at) / RFU ECM1 (11717891_a_at) / Fold change /veh ECM1 (11717891_a_at) / RFU IL23R (11748794_a_at) / Fold change /veh IL23R (11748794_a_at) / RFU TNFAIP8L3 (11732012_x_at) / Fold change /veh TNFAIP8L3 (11732012_x_at) / RFU MBOAT4 (11741988_at) / Fold change /veh MBOAT4 (11741988_at) / RFU 11764193_at / Fold change /veh 11764193_at / RFU TMEM53 (11763286_at) / Fold change /veh TMEM53 (11763286_at) / RFU MAGEB2 (11727129_at) / Fold change /veh MAGEB2 (11727129_at) / RFU TMEM200A (11744735_a_at) / Fold change /veh TMEM200A (11744735_a_at) / RFU CCDC152 (11751479_a_at) / Fold change /veh CCDC152 (11751479_a_at) / RFU FAM211A (11726209_a_at) / Fold change /veh FAM211A (11726209_a_at) / RFU RGS16 (11746705_a_at) / Fold change /veh RGS16 (11746705_a_at) / RFU VCAN (11755009_s_at) / Fold change /veh VCAN (11755009_s_at) / RFU RHOB (11743442_s_at) / Fold change /veh RHOB (11743442_s_at) / RFU RGS16 (11720943_a_at) / Fold change /veh RGS16 (11720943_a_at) / RFU RGS16 (11720944_at) / Fold change /veh RGS16 (11720944_at) / RFU, VPS4B / Fold change vs veh, VPS4B / RFU, CREB1 / Fold change vs veh, CREB1 / RFU, DNAJC13 / Fold change vs veh, DNAJC13 / RFU, GNAQ / Fold change vs veh, GNAQ / RFU, CDK5R1 / Fold change vs veh, CDK5R1 / RFU, ZRANB3 / Fold change vs veh, ZRANB3 / RFU, CUL4A / Fold change vs veh, CUL4A / RFU, CCNY / Fold change vs veh, CCNY / RFU, UFL1 / Fold change vs veh, UFL1 / RFU, COG3 / Fold change vs veh, COG3 / RFU, DIAPH2 / Fold change vs veh, DIAPH2 / RFU, SKA2 / Fold change vs veh, SKA2 / RFU, AFF3 / Fold change vs veh, AFF3 / RFU, LMF1 / Fold change vs veh, LMF1 / RFU, IPO11 / Fold change vs veh, IPO11 / RFU, DFFB / Fold change vs veh, DFFB / RFU, FOXP1 / Fold change vs veh, FOXP1 / RFU, CARD8 / Fold change vs veh, CARD8 / RFU, STRN3 / Fold change vs veh, STRN3 / RFU, ADK / Fold change vs veh, ADK / RFU, RASSF2 / Fold change vs veh, RASSF2 / RFU, WIPF1 / Fold change vs veh, WIPF1 / RFU, LARP1B / Fold change vs veh, LARP1B / RFU, RASA1 / Fold change vs veh, RASA1 / RFU, RB1 / Fold change vs veh, RB1 / RFU, PPFIA1 / Fold change vs veh, PPFIA1 / RFU, MAT2A / Fold change vs veh, MAT2A / RFU, CCT5 / Fold change vs veh, CCT5 / RFU, WDR92 / Fold change vs veh, WDR92 / RFU, CUX1 / Fold change vs veh, CUX1 / RFU, TTC7A / Fold change vs veh, TTC7A / RFU, TMEM135 / Fold change vs veh, TMEM135 / RFU, DEPTOR / Fold change vs veh, DEPTOR / RFU, CPM / Fold change vs veh, CPM / RFU, DNAJB6 / Fold change vs veh, DNAJB6 / RFU, CACNA2D3 / Fold change vs veh, CACNA2D3 / RFU, DTX4 / Fold change vs veh, DTX4 / RFU, TFCP2 / Fold change vs veh, TFCP2 / RFU, GMCL1 /// GMCL1P1 / Fold change vs veh, GMCL1 /// GMCL1P1 / RFU, AEBP2 / Fold change vs veh, AEBP2 / RFU, SNHG1 /// SNORD22 /// SNORD25 /// SNORD26 /// SNORD27 /// SNORD28 /// SNORD29 /// SNORD31 / Fold change vs veh, SNHG1 /// SNORD22 /// SNORD25 /// SNORD26 /// SNORD27 /// SNORD28 /// SNORD29 /// SNORD31 / Fold change (Aza/veh), C12orf56 (ProbeSet 11735607_a_at) / Fold change (ACY-1035/veh), C12orf56 (ProbeSet 11735607_a_at) / Fold change (Aza/veh), FGFR1OP (ProbeSet 11751329_s_at) / Fold change (ACY-1035/veh), FGFR1OP (ProbeSet 11751329_s_at) / Fold change (Aza/veh), VPS36 (ProbeSet 11739960_a_at) / Fold change (ACY-1035/veh), VPS36 (ProbeSet 11739960_a_at) / RFU SYPL1 (11715823_x_at) / Fold change /veh SYPL1 (11715823_x_at) / RFU IGFBP7 (11715501_s_at) / Fold change /veh IGFBP7 (11715501_s_at) / RFU REEP3 (11722064_at) / Fold change /veh REEP3 (11722064_at) / RFU IGLL1 (11728026_x_at) / Fold change /veh IGLL1 (11728026_x_at): dose or concentration left out as unconfirmed
Settings: ProbeSet 11743362_s_at; LIST B

In the case of Nc1ccc(-c2cccs2)cc1NC(=O)c1ccc2c(c1)cc(C1CC1)n2CCN1CCOCC1 [ACY-1035], the “RFU, ADSS” value is reported as 662.69 RFU.
